Here are results for 6 molecules from article PMC10906223 (JCI Insight, 2024).

For data set [1], the system named is murine dispersed islet cells. Description: Glucagon secretion from murine dispersed islet cells. It is filed as cell-based, mouse. As to conditions: for Secretion of glucagon: Rhy (2.5 µM) alone, listed as Rhy. The method, then: (§1) Pancreata of nondiabetic C57BL/6J mice were digested using collagenase P (Roche Diagnostics, catalog 11213873001), and islets were manually picked up using a stereomicroscope (ZEISS Stemi 305). […] Isolated mouse islets or provided human islets were dispersed as described ([28]). Briefly, 100–120 islets were washed 2 times using modified HBSS, then dispersed in 600 μL Accutase (Innovative Cell Technologies, catalog AT-104) by gently pipetting up and down for 7 minutes at 37°C. […] Following refreshing of KRBH, cells were dispensed in 8 microfuge tubes (2,000 cells/tube) and treated with WCDD301, preclustered Ephrin-A5 Fc, or preclustered Fc in the presence or absence of the competitive inhibitor of EphA4 receptor, rhyncophylline ([60]) (MilliporeSigma, catalog SML2345). In the presence or absence of these effectors, secretion assay was performed sequentially as shown in Supplemental Table 5. […] Preclustering of Ephrin-A5 Fc was done by mixing Ephrin-A5 Fc or Fc alone (BioLegend, catalog 790102) with anti-Fc antibody (Invitrogen, catalog A16086) (1:10 molar ratio) 20 minutes before treatment ([62]). […] Shedding of cleaved EphA4 was measured from the cell culture medium. Experiments were performed by dispersion of 200 islets, and EphA4 levels in media were measured by EphA4 ELISA (ABclonal, catalog RK06572).

Data set [2] can be described thus: Microsomal stability assay, human liver microsomes. It is filed as in vitro ADME. As to conditions: for Remaining in hepatic microsomes (100 at 0 min): human microsomes, Figure 5C; for Hepatic clearance: predicted from microsomal data. The protocol:
(§2) A total of 445 μL of the working solution was transferred into prewarmed incubation plates for treated (T60) and control (NCF60) measurements. After preincubation (10 minutes at 37°C with constant shaking), 54 μL was transferred to the blank plate, followed by 6 μL of NADPH and 180 μL quenching solution. In parallel, 5 μL of WCDD301 (100 μM) was added into incubation plates (T60 and NCF60) containing microsomes and mixed thoroughly (3 times). For the NCF60 plate, 50 μL of buffer was added, mixed (thoroughly, 3 times), shaken, and incubated at 37°C for 60 minutes. In the quenching plate T0, quenching solution (180 μL) and NADPH cofactor (6 μL) were added. For T60 plate, 54 μL of the mixture was placed into the quenching plate (for T0 point), followed by adding 44 μL NADPH cofactor with shaking incubation at 37°C for 60 minutes. Quenching solution (180 μL) was added to quenching plates at 5, 15, 30, 45, and 60 minutes, and 60 μL of sample was transferred from T60 plate per time point to the quenching plates. For the NCF60 plates, 60 μL sample from the NCF60 incubation plate was transferred to the quenching plate (containing quenching solution) at the 60-minute time point. After plates were shaken for 10 minutes and centrifuged (1,750g, 20 minutes at 4°C), 80 μL of the supernatant was transferred into 240 μL HPLC water for LC-MS/MS analysis. The following first-order kinetic equation was used to calculate half-life (T1/2): [drawing 3]; when
(§3) Then, intrinsic clearance [CLint (microsomal; mic)] and hepatic clearance [CLint (liver)] were predicted using the following equations ([66]): […]

The nature of data set [3]: Microsomal stability assay, CD-1 mouse liver microsomes. The class given is in vitro ADME. Conditions: for Remaining in hepatic microsomes (100 at 0 min): mouse microsomes, Figure 5D; for Hepatic clearance: mouse, predicted from microsomal data. The method, then:
as §2, §3

In data set [4] the test system is human donor dispersed islet cells. Description: Glucagon secretion from healthy human donor dispersed islet cells. The class given is cell-based. As to conditions: human α cells; range of concentrations; Supplemental Figure 1A. The protocol: as §1
The Integrated Islet Distribution Program provided us human donor islets with their characteristics (Supplemental Table 6). Islets were centrifuged at 500g for 3 minutes, resuspended in CMRL 1066 medium (Gibco, catalog 1150-037) containing 11 mM glucose, and rested in an incubator overnight.
For the hormone secretion assay, islets or dispersed islet cells were adapted in KRBH buffer containing 11 mM glucose for 1 hour. Then, after 2 washes in HBSS containing 11 mM glucose, islets or cells were treated in the following sequential order in the presence or absence of WCDD301: incubation in KRBH (1 mM glucose, 30 minutes) followed by medium collection, incubation in KRBH (11 mM glucose, 30 minutes) followed by medium collection.

Data set [5] is described as follows: Plasma stability assay, human plasma. It is filed as in vitro ADME. Conditions: for Ln (% Remaining): human plasma, 37°C, Figure 5A. The method, then:
(§4) Pooled frozen plasma of CD-1 mice (n = 20; catalog MSE00PLK2M2N, Beijing Vital River Laboratory Animal Technology) or humans (n = 6, catalog […]2P2N, Bioreclamation IVT), equal numbers of males and females, was thawed in a 37°C water bath, and residual clots were removed by centrifugation (500g for 5 minutes). Plasma (98 μL) was aliquoted in each well of 96-well reaction plates using an Apricot automation workstation. WCDD301 (100 μM) or propantheline bromide (100 μM, as a positive control) was added (2 μL/well) to sets of wells assigned to blank or time points (T0, T10, T30, T60, and T120 minutes) and incubated at 37°C. At each time point, the reaction was stopped by adding stop solution (500 μL; a mixture of 200 ng/mL of tolbutamide and labetalol in acetonitrile), mixed thoroughly, sealed, shaken (20 minutes), and centrifuged (1,750g, 4°C, 20 minutes). A total of 150 μL of the supernatant from each well of the reaction plate was transferred to its corresponding bioanalysis plate for LC-MS/MS analysis. The remaining level (%) of the WCDD301 was calculated using the following equation: remaining (%) = (PAR at each time point/PAR at T0) × 100. PAR stands for the peak area ratio of the WCDD301 versus internal standard.

A short description of data set [6]: Plasma stability assay, CD-1 mouse plasma. It is filed as in vitro ADME. Conditions: for Ln (% Remaining): mouse plasma, 37°C, Figure 5B. The protocol: as §4

“And” between values parts separate entries of the source, which are not always exact repeats. Equal values may be shown once.

`N=C(N)NCCC[C@H](N)C(=O)O` [Arginine, reference compound]: in data set [1] (Arginine 25 mM alone, Supplemental Figure 2), the “Effect on glucagon secretion” value was “significantly increased glucagon secretion”.

On to `O=C(O)Cc1ccccc1Nc1c(Cl)cccc1Cl` [Diclofenac], for which the Intrinsic microsomal clearance in data set [2] (human) is 313.9 µL/min/mg. The “Remaining in hepatic microsomes (100 at 0 min)” value (“Remaining in hepatic microsomes” below) in data set [2] (5 min) is 48.7; in data set [2] (15 min) it was 9.3; in data set [2] (30 min), 0.9; in data set [3] (5 min), 85.5; in data set [3] (15 min), 77.8; in data set [3] (30 min) it was 58.6. In addition, the “Remaining in hepatic microsomes” value in data set [3] (45 min) was determined as 52.8; in data set [3] (60 min) it was 39.3. Also, in data set [2] (human, liver microsomes), the half-life at 1 µM stood at 4.4 min. Also, the results for the Hepatic clearance in data set [2] (human) and in data set [3] were 282.5 mL/min/kg and 115.5 mL/min/kg, respectively.

In the case of `COc1cc2nc(N3CCN(C(=O)C4COc5ccccc5O4)CC3)nc(N)c2cc1OC` (centres unmarked) [Doxazosin, reference compound], the “Effect on glucagon secretion” value in data set [4] is listed as “increased glucagon secretion”; in data set [1] (mouse α cells, range of concentrations, Supplemental Figure 1B-E), “increased glucagon secretion”.

On to `CC(C)[N+](C)(CCOC(=O)C1c2ccccc2Oc2ccccc21)C(C)C` [Propantheline, propantheline bromide], for which the half-life at 2 µM in data set [5] (both sexes, human, plasma) stood at 9.8 min; in data set [6] (both sexes, CD-1, mouse, plasma) it was 34.3 min. The “Ln (% Remaining)” value was -0.39 in data set [5] (10 min); -2.06 in data set [5] (30 min); -4.13 in data set [5] (60 min); -0.31 in data set [6] (10 min); -0.9 in data set [6] (30 min); -1.58 in data set [6] (60 min). In addition, the “Ln (% Remaining)” value in data set [6] (120 min) was -2.45.

In data set [2] (human), `C[C@]12CC[C@H]3[C@@H](CCC4=CC(=O)CC[C@@]43C)[C@@H]1CC[C@@H]2O` [Testosterone] returned an Intrinsic microsomal clearance of 95.6 µL/min/mg. This molecule gave a Microsomal half-life in data set [2] (human) of 14.5 min. Besides, the “Remaining in hepatic microsomes” value in data set [2] (5 min) is recorded as 78.1; in data set [2] (15 min), 33; in data set [2] (30 min), 12.9; in data set [2] (45 min), 8.4; in data set [2] (60 min), 6.4; in data set [3] (5 min) it was 43.1. For the same molecule, the “Remaining in hepatic microsomes” value amounted to 11.2 in data set [3] (15 min) and 2 in data set [3] (30 min). In addition, the Hepatic clearance in data set [2] (human) was 86 mL/min/kg; in data set [3], 1018.5 mL/min/kg. The molecule also registered a half-life at 1 µM in data set [3] (CD-1, mouse, liver microsomes) of 5.4 min. Also, in data set [3] (CD-1, mouse, liver microsomes, read-out: Intrinsic microsomal clearance), the microsomal CLint at 1 µM turned out to be 257 µL/min/mg.

Consider `CC[C@H]1CN2CC[C@]3(C(=O)Nc4ccccc43)[C@@H]2C[C@@H]1/C(=C\OC)C(=O)OC` [rhyncophylline, reference compound], for which the Secretion of glucagon in data set [1] (Glucose (1 mM), Figure 1H) was 0.87 and 0.81 and 0.85 and 0.79 and 0.82; in data set [1] (Glucose (11 mM), Figure 1H), 0.41 and 0.5 and 0.38 and 0.45 and 0.4. Besides, in data set [1] (competitive inhibitor of EphA4, Figure 1H), the “Effect of EphA4 inhibition on suppression of glucagon secretion” value was “abolished the suppressive effect of both Ephrin-A5 and 1.5 μM WCDD301 on glucagon secretion”.

The half-life is the time in which the quantity being followed falls by half. Low readings indicate rapid decline, high ones slow decline.
